From ChEMBL document CHEMBL5726922, “Chemokine CXCR1 and CXCR2 receptor antagonist compounds, and use thereof in the treatment of chemokine-mediated pathologies” (2019)

Tests used:
[1] = biological target: T1, C-X-C chemokine receptor type 2 (Homo sapiens, UniProt P25025); assay: (§1) J. Immunol. 170: 2904-2911).To evaluate the direct interaction of the CXCR2 or CXCR1 receptor with β-arrestin 2, a test of β-arrestin 2 recruitment for CXCR2 or CXCR1 based on complementation of the β-galactosidase enzyme (Olson K. R., Eglen R. M., Beta-galactosidase complementation: a cell-based luminescent assay platform for drug discovery. Assay Drug Dev. Technol. 2007 February; 5(1); 137-44), as established by DiscoveRx Corporation was used. Stimulation of these two cell lines with CXCL8 (10 nM) induces the recruitment of β-arrestin 2, as indicated by a significant increase in the induction factor. All the CXCR2 antagonists are tested in a dose-dependent manner and the concentration corresponding to 50% inhibition of the response is determined (IC50=concentration of half-inhibition).β-Arrestin Recruitment Test: “PathHunter HEK293-CXCR2” or “U2OS hCXCR1 β-arrestin” cells (DiscoveRx Corporation) were seeded overnight at 10 000 cells/well (384-well format) in 20 μl of Opti MEM I medium. Preincubation with the antagonist or the vehicle for 30 minutes at 37° C. and 5% CO2 was followed by 60 minutes of stimulation with CXCL8 at 37° C. and 5% CO2. The cells were then placed at room temperature for 30 minutes. The PathHunter detection reagent (DiscoveRx Corporation) was added. […]
T1 sequence (P25025 whole entry): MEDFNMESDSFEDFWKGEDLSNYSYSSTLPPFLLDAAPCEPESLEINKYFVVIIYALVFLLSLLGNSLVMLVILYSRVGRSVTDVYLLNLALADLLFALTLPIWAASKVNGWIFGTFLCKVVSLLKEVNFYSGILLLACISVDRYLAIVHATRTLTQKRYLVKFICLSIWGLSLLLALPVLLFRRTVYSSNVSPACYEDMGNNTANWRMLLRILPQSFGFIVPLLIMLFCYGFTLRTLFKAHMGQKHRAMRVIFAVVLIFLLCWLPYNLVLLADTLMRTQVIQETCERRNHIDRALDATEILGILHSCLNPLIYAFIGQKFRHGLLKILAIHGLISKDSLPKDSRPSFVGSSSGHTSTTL

[2] = biological target: T2, C-X-C chemokine receptor type 1 (Homo sapiens, UniProt P25024); assay: as §1
T2 sequence (P25024 whole entry): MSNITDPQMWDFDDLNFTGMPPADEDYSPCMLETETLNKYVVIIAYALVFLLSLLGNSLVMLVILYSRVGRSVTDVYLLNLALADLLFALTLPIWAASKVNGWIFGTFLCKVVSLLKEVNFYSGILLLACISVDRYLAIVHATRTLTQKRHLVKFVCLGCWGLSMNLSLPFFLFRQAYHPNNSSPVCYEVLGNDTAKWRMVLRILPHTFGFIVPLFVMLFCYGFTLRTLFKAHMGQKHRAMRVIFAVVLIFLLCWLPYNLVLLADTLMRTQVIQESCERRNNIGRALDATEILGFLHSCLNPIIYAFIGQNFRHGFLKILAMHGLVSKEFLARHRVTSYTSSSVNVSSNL

## CC[C@@H](Nc1c(Nc2ccc(Cl)c(S(C)(=O)=NCCN(C)C)c2O)c(=O)c1=O)c1ccc(C)o1 (some centres not stated)
[1]
  IC50: > 0.02 µM
[2]
  IC50: > 0.2 µM
